Results as given in the NIST ThermoML archive (doi:10.1021/je1012857).

Experiment: xn = mol fraction of the nth substance listed
Conditions: 101 kPa, Liquid; for speed of sound: Sing-around technique in a fixed-path interferometer; for viscosity: Capillary tube (Ostwald / Ubbelohde) method

NCCN [ethane-1,2-diamine] + CC(C)O
Conditions	mass density, 293.15 K [kg/m3]	mass density, 298.15 K [kg/m3]	speed of sound, 293.15 K [m/s]	speed of sound, 298.15 K [m/s]	speed of sound, 303.15 K [m/s]	viscosity, 298.15 K [mPa·s]	viscosity, 303.15 K [mPa·s]
x1 = 0.0557	793.696	789.425	1187.2	1169.4	1151.7	2.034	1.761
x1 = 0.1036	800.705	796.388	1213.8	1195.9	1178	2.017	1.746
x1 = 0.156	807.902	803.523	1241.5	1223.4	1205.3	1.997	1.733
x1 = 0.2011	813.922	809.506	1265.8	1247.6	1229.4	1.978	1.718
x1 = 0.2548	820.862	816.397	1295.1	1276.6	1258.2	1.962	1.698
x1 = 0.3018	826.514	822.019	1320.2	1301.6	1283	1.936	1.675
x1 = 0.3892	836.546	832.023	1366.4	1347.5	1328.5	1.886	1.629
x1 = 0.5109	849.474	844.925	1430.5	1410.9	–	1.796	1.558
x1 = 0.605	858.745	854.173	1478.9	1458.9	–	1.725	1.496
x1 = 0.6988	868.4	863.796	1530.6	1510	–	1.637	1.429
x1 = 0.7969	878.278	873.662	1584.3	1563.2	–	1.543	1.357
x1 = 0.8369	881.835	877.194	1605.3	1583.7	–	1.511	1.331
x1 = 0.8931	887.269	882.613	1635.6	1613.9	–	1.469	1.298
x1 = 0.9409	892.34	887.669	1662.9	1640.7	–	1.438	1.271
